Patent US10918891B2, “Cosmetic treatment method for the skin” (SYNTIVIA, priority 2016, dated 2021)

Legend:
Format in all cases: cell-based, human
[1] = tested on: NativeSkin® skin explants (Genoskin); experiment: Breaks in the DNA (γ-H2AX marking) of NativeSkin skin explant ex vivo after UVA irradiation; details: composition 0.9 mmol/L topical, 60 J/cm^2 UVA every day for 3 days, n=10 images, FIG. 7
Experimental: The test was carried out on NativeSkin® skin explants (Genoskin), a biopsy of skin bathed in a solid, nourishing matrix while its epidermal surface is preserved in contact with the air. The biopsy is firmly anchored in the matrix and sealed in order to prevent any lateral diffusion of formulation intended for topical application.
The study was carried out on a donor (phototype 2) under the following conditions.
The compounds tested are implemented in a composition containing them at 0.9 mmol/L in a mixture of Carbopol® (0.5% p/p), DMSO (0.1% p/p) and H2O (qsp 100%).
The samples are irradiated at 60 J/cm^2 UVA every day for 3 days. A treatment is carried out for 24 h before the irradiation, by application of the composition tested onto the sample (deposition of 40 μl of composition onto the stratum corneum), then a post-treatment of 24 h after the irradiation, in the same manner.
A Control of the sample of skin non-irradiated and a Control of the sample of skin irradiated are also carried out, both with application of the vehicle alone (0.5% Carbopol®, 0.1% DMSO, H2O). The Control of the non-irradiated sample of skin is introduced into the irradiator in a sheet of aluminium, in such a way as to protect it against UVs.
The samples are sampled, cut (according to the conventional method of cryo-sectioning implementing paraffin and freezing) and fixed in 1 ml of formalin for 24 h.
The explants are then included in paraffin and sections of 5 μm are made.
The slides obtained are also marked by immunohistochemistry with the biomarker γ-H2Ax.
The analysis of the marking is carried out with a DM5000B fluorescence microscope (Leica Microsystems) and 10 images are acquired for each sample.
For the marking with γ-H2Ax, for each image, the total number of nuclei is detected with 4′,6-diamidino-2-phenylindole (dapi). In the same image, the number of nuclei having the marking is quantified. The ratio of the number of positive nuclei, multiplied by 100, to the number of total nuclei, is calculated, in order to obtain a percentage (=(positive nuclei*100)/total nuclei), n=10 per sample.
A statistical analysis is carried out with a student's test by comparing the samples to the control (p value[…], p value<0.05**, p value<0.005***, ns not significant).

NHEK cells = experiment: Survival (WST1) of NHEK keratinocytes exposed to cigarette extract, comparison with caffeic acid; details: compound 10 ppm pretreatment 24 h and treatment 24 h, cigarette extract 1/50, cigarette extract alone 55% survival, FIG. 4
Experimental: This study aims to compare the protective or repairing effect of the compounds according to the invention (Ia) and (Ib) with respect to the damage induced on the skin by a cigarette extract. For comparison, caffeic acid (supplier: Acros) is also tested. This acid forms a basic unit of the compounds (Ia) and (Ib) according to the invention.
The NHEK cells are inoculated in a 96-well plate in a suitable medium (Promocell), at a rate of 9000 cells per well, and incubated 24 h at 37° C. and 5% carbon dioxide.
The compounds to be tested are prepared as follows: • (Ia): 10 mg of compound+909 μL of DMSO • (Ib): 7 mg of compound+636 μL of DMSO • caffeic acid: 10 mg of compound+909 μL of DMSO
Each stock solution above is diluted 1000 times, to 10 ppm in the culture medium, then the solutions obtained are filtered by means of a nylon filter (0.22 μm). The final solutions are concentrated to 10 ppm in 0.1% DMSO.
Solutions at 20 ppm in 0.2% DMSO are also prepared in a similar manner, for dilution in the cigarette extract.
An extract of 20 cigarettes is prepared as indicated in example 14 above. This extract is then diluted to 1/50 in the culture medium; or to 2/50 in the culture medium, then to 1/2 in the culture medium, to which the compound to be tested is added at 20 ppm.
The cells are pretreated for 24 h with the compound to be tested at 10 ppm in the culture medium.
The cells are then treated with the cigarette extract diluted to 1/50th with or without the compound tested at 10 ppm for 24 h.
3 h before the end of the test, 10 μl of WST1 cellular proliferation reactant (Roche) are added into each well. The absorbance at 450 nm is measured before and after the addition of WST1 reactant, by means of a Multiskan® reader. The treated cells are compared to the untreated cells and to the cells exposed to the cigarette extract.

IL8 = experiment: Gene expression of IL8 by quantitative RT-PCR in NHEK; details: (Ia) 3 ppm (10^−5M), 24 hours
Experimental: In these examples, the expression of the messenger RNA is measured by the technique of quantitative RT-PCR (reverse transcription followed by polymerase chain reaction), after incubation in vitro of the various cell types in the absence or in the presence of compound (Ia).
This study was carried out on normal human dermal Fibroblasts (NHDF) or normal human epidermal Keratinocytes (NHEK). The compound (Ia) is tested at 10^−5M in an aqueous solution with 0.1% dimethylsulfoxide.
The cells are cultured at the concentration of 10,000 cells per well of 96-well plates, in the presence of standard culture medium according to the cell type.
The compound (Ia) is then added at the concentration (3 ppm), for 24 hours.
The supernatant is eliminated and the cells are taken up in a specific buffer for the extraction of the messenger RNA (mRNA). The mRNA is purified and reverse transcribed in the presence of a commercial reverse transcriptase.
The complementary DNA (cDNA) obtained is quantified by RT-PCR, by means of suitable primers. The rate of expression of the mRNA is normalised with 5 reference genes.
The cells used for this example are normal human keratinocytes (NHEK).

## Cc1ncc(CO)c(CNC(=O)/C=C/c2ccc(O)c(O)c2)c1O [Compound (Ia)]
[1]
  percentage of nuclei positive for marking with γ-H2AX, compared with controls: clearly reduced with respect to the irradiated control sample
NHEK cells
  % survival of the cells: 108%
IL8
  Reduction of the gene expression compared to the basal level based on 100% (IL8): −75%
